From patent US20250214991A1 (Oncopia Therapeutics, Inc. d/b/a/ SK Life Science Labs, priority 2022, published 2025)

Tests used:
IKZF1 = IKZF1 (Homo sapiens (Human), UniProt Q13422+Q96SW2); test: In vitro IKZF1 HiBit Assay (HEK293T Flp-in-HiBiT-IKZF1 stable cell line); format: cell-based; conditions: HEK293T Flp-in-HiBiT-IKZF1 stable cell line, 6 hrs incubation; for DC50: read-out: IKZF1 HiBit DC50; for Dmax: HEK-293T, read-out: IKZF1 HiBit Dmax (%)
Summary of the method: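 HEK293T Flp-in cells carrying N-terminal HiBiT-tagged IKZF1 were exposed to compound (0.1% DMSO) for 6 h at 3000 cells/well. HiBiT luminescence was read after lytic LgBiT detection. DC50 and Dmax were taken from DMSO-normalized dose-response curves.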

IKZF2 = IKZF2 (Homo sapiens (Human), UniProt Q96SW2+Q9UKS7); test: In vitro IKZF2 HiBit Assay (HEK293T Flp-in-HiBiT cells); format: cell-based; conditions: HEK293T Flp-in-HiBiT cells, 6 hrs incubation; for DC50: read-out: IKZF2 HiBit DC50; for Dmax: HEK-293T, read-out: IKZF2 HiBit Dmax (%)
Summary of the method: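 HEK293T Flp-in cells carrying an endogenous N-terminal HiBiT tag on IKZF2 were exposed to compound for 6 h at 0.1% DMSO. The dilution series was 11 doses at 3-fold, diluted from 1 mM. Nano-Glo HiBiT lytic luminescence, normalized to DMSO, gave DC50 for 50% degradation and Dmax across the concentration range, both reported in letter bins.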

CRBN/DDB1 = CRBN/DDB1 (Homo sapiens (Human), UniProt Q96SW2); test: IC50 measurements for binding to CRBN/DDB1 (HTRF); conditions: His tagged CRBN+DDB, Cy5-labeled Thalidomide probe, one hour
Summary of the method: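 HTRF competition binding with 2 nM His-tagged CRBN-DDB1 complex, 60 nM Cy5-thalidomide probe and 0.4 nM anti-His Tb cryptate in 50 mM HEPES pH 7.5, 1 mM TCEP, 0.01% Brij-35, 50 mM NaCl, 0.1% BSA. Read after 1 h at room temperature; IC50 from four-parameter dose-response fit.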

Chain of CRBN/DDB1 (Q96SW2 whole entry, species assumed): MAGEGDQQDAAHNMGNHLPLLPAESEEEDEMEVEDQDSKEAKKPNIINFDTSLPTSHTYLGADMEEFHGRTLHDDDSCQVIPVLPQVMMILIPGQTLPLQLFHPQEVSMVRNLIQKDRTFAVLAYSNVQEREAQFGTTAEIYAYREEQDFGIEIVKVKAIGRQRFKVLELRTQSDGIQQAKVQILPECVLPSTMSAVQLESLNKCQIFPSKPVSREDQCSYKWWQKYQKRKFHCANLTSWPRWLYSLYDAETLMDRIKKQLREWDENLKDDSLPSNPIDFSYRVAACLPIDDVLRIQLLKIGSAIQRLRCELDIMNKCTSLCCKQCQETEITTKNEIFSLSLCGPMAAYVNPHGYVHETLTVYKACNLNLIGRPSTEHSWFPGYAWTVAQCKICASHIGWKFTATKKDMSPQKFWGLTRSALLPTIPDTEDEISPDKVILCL
Chain of CRBN/DDB1 (Q16531 whole entry partner, species assumed): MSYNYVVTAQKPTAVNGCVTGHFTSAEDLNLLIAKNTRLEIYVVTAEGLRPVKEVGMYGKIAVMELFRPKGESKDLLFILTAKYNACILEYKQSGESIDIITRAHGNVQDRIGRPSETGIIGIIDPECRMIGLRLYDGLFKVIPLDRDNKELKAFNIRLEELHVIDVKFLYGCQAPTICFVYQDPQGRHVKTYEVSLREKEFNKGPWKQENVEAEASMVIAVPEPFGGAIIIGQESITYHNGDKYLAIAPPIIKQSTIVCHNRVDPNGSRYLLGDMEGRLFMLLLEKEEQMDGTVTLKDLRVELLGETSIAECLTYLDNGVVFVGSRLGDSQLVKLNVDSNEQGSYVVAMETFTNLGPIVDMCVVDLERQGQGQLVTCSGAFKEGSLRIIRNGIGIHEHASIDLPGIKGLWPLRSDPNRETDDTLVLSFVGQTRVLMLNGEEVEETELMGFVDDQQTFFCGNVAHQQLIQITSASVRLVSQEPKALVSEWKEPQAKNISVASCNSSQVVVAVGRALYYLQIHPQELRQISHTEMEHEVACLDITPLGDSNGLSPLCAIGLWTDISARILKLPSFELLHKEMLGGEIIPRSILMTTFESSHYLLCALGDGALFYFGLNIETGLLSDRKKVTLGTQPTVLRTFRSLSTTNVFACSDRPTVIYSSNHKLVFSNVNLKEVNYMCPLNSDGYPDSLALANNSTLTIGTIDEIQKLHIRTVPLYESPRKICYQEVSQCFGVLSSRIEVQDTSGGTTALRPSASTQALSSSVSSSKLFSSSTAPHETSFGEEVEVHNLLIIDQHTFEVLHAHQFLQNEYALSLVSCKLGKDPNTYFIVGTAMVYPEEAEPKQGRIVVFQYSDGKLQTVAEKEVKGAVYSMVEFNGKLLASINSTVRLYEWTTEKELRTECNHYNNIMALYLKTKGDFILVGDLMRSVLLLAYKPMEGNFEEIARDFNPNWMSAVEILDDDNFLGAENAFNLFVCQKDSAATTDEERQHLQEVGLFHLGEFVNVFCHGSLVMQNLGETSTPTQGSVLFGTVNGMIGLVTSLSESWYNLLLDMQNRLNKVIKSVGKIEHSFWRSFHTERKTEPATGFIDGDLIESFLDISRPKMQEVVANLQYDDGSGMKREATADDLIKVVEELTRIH
Chain of IKZF1 (Q13422 whole entry): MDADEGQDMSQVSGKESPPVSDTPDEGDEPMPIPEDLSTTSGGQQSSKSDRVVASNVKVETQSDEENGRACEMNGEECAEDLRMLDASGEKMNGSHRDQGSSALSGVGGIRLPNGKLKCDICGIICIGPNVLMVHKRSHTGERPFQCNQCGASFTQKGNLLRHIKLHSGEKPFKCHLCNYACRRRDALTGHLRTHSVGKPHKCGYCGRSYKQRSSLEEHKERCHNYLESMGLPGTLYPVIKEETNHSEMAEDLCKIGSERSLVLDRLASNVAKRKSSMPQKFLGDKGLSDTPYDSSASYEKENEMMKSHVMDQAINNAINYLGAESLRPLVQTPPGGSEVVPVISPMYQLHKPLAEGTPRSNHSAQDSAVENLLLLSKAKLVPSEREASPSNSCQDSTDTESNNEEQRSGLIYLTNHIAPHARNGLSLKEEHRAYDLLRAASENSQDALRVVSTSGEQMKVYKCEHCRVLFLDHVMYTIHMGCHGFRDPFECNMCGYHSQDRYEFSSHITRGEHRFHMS
Chain of IKZF1 (Q96SW2 whole entry): as the sequence (Q96SW2 whole entry, species assumed) above
Chain of IKZF1 (Q16531 2-1140 partner): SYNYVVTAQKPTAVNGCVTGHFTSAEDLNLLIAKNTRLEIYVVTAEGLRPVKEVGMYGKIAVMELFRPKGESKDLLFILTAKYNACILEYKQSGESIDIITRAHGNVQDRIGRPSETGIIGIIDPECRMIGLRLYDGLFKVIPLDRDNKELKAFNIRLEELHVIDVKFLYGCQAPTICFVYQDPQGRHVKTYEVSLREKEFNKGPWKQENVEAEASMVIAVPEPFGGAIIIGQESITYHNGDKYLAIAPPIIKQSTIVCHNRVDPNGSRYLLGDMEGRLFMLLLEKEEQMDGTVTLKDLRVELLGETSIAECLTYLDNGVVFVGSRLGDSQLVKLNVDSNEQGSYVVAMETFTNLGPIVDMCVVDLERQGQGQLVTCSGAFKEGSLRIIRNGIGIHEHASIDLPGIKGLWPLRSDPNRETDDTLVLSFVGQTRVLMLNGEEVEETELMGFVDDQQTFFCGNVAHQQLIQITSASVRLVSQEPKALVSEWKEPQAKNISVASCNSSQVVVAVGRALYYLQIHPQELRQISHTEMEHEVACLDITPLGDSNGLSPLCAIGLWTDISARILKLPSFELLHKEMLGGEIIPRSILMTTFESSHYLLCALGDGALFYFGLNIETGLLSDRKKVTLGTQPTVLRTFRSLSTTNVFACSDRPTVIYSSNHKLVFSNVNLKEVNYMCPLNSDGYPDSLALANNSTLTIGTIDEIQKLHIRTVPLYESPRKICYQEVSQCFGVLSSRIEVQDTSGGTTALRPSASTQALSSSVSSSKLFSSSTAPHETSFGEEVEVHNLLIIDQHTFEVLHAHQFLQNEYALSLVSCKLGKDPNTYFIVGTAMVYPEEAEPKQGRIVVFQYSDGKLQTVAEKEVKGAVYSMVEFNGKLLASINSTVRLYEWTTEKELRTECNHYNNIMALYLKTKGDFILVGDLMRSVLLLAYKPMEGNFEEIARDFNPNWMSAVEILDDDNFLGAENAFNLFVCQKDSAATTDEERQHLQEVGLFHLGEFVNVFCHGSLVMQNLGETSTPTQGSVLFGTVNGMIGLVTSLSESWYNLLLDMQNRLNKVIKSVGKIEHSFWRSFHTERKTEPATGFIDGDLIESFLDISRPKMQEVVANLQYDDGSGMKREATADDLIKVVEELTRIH
Chain of IKZF2 (Q9UKS7 whole entry): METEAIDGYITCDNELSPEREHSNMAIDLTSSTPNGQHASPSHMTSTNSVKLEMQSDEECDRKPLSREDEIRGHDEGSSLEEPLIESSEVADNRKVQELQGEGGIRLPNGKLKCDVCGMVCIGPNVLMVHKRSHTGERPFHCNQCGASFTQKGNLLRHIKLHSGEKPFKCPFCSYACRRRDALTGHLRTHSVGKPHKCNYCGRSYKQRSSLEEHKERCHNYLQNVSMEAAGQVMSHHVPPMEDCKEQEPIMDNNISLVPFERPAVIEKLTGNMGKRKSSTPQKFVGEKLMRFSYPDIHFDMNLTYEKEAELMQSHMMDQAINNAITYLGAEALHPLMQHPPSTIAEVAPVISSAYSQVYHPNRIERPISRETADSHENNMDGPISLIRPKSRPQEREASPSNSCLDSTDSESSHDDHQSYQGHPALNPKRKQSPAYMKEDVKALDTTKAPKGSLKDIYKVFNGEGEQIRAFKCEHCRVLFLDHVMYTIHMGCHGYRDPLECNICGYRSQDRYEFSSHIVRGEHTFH
Chain of IKZF2 (Q96SW2 whole entry): as the sequence (Q96SW2 whole entry, species assumed) above
Chain of IKZF2 (Q16531 2-1140 partner): as the sequence (Q16531 2-1140 partner) above

## CN(C)C(=O)CC1CCN(Cc2cc(-c3ccc4c(c3)CN(C3CCC(=O)NC3=O)C4=O)nc3[nH]ccc23)C1 (stereo not shown) [Example 167, 2-(1-((6-(2-(2,6-dioxopiperidin-3-yl)-1-oxoisoindolin-5-yl)-1H-pyrrolo[2,3-b]pyridin-4-yl)methyl)pyrrolidin-3-yl)-N,N-dimethylacetamide]
IKZF1
  DC50: 100 to 1000 nM
  Dmax: 20 to 40%
IKZF2
  DC50: 10 to 100 nM
  Dmax: 60 to 80%
CRBN/DDB1
  IC50: 100 to 500 nM

## COc1n[nH]c2c(CN3CCCC3)cc(-c3ccc4c(c3)CN(C3CCC(=O)NC3=O)C4=O)nc12 (stereo not shown) [Example 235, 3-(5-(3-methoxy-7-(pyrrolidin-1-ylmethyl)-1H-pyrazolo[4,3-b]pyridin-5-yl)-1-oxoisoindolin-2-yl) piperidine-2,6-dione]
IKZF1
  DC50: 100 to 1000 nM
  Dmax: 20 to 40%
IKZF2
  DC50: 1 to 10 nM
  Dmax: 60 to 80%
CRBN/DDB1
  IC50: 5000 to 10000 nM

## COc1cc2c(cc1-c1cc(CN3CCCC3)cc3cncn13)CN(C1CCC(=O)NC1=O)C2=O (stereo not shown) [Example 30, 3-(6-methoxy-1-oxo-5-(7-(pyrrolidin-1-ylmethyl)imidazo[1,5-a]pyridin-5-yl)isoindolin-2-yl) piperidine-2,6-dione]
IKZF1
  DC50: > 10000 nM
  Dmax: < 20%
IKZF2
  DC50: 1000 to 10000 nM
  Dmax: < 20%
CRBN/DDB1
  IC50: 1000 to 5000 nM

## Cn1ccc2c(CN3CCC(F)CC3)cc(-c3ccc4c(c3)CN(C3CCC(=O)NC3=O)C4=O)nc21 (stereo not shown) [Example 301, 3-(5-(4-((4-fluoropiperidin-1-yl)methyl)-1-methyl-1H-pyrrolo[2,3-b]pyridin-6-yl)-1-oxoisoindolin-2-yl) piperidine-2,6-dione]
IKZF1
  DC50: 10 to 100 nM
  Dmax: 20 to 40%
IKZF2
  DC50: < 1 nM
  Dmax: > 80%
CRBN/DDB1
  IC50: 1000 to 5000 nM

## Cn1ccc2c(CN3CCCCCC3)cc(-c3ccc4c(c3)CN(C3CCC(=O)NC3=O)C4=O)nc21 (stereo not shown) [Example 302, 3-(5-(4-(azepan-1-ylmethyl)-1-methyl-1H-pyrrolo[2,3-b]pyridin-6-yl)-1-oxoisoindolin-2-yl) piperidine-2,6-dione]
IKZF1
  DC50: 1 to 10 nM
  Dmax: 20 to 40%
IKZF2
  DC50: < 1 nM
  Dmax: > 80%
CRBN/DDB1
  IC50: 1000 to 5000 nM

## Cn1ccc2c(CN3CCC(F)(F)CC3)cc(-c3ccc4c(c3)CN(C3CCC(=O)NC3=O)C4=O)nc21 (stereo not shown) [Example 60, 3-(5-(4-((4,4-difluoropiperidin-1-yl)methyl)-1-methyl-1H-pyrrolo[2,3-b]pyridin-6-yl)-1-oxoisoindolin-2-yl) piperidine-2,6-dione]
IKZF1
  DC50: > 10000 nM
  Dmax: < 20%
IKZF2
  DC50: 1 to 10 nM
  Dmax: 60 to 80%
CRBN/DDB1
  IC50: 500 to 1000 nM

## Cn1ccc2nc(-c3ccc4c(c3)CN(C3CCC(=O)NC3=O)C4=O)cc(CN3CCC3)c21 (stereo not shown) [Example 110, 3-(5-(7-(azetidin-1-ylmethyl)-1-methyl-1H-pyrrolo[3,2-b]pyridin-5-yl)-1-oxoisoindolin-2-yl) piperidine-2,6-dione]
IKZF1
  DC50: > 10000 nM
  Dmax: < 20%
IKZF2
  DC50: 1 to 10 nM
  Dmax: > 80%
CRBN/DDB1
  IC50: 500 to 1000 nM

## Cn1ccc2c(CN3CCC(O)CC3)cc(-c3ccc4c(c3)CN(C3CCC(=O)NC3=O)C4=O)nc21 (stereo not shown) [Example 305, 3-(5-(4-((4-hydroxypiperidin-1-yl)methyl)-1-methyl-1H-pyrrolo[2,3-b]pyridin-6-yl)-1-oxoisoindolin-2-yl) piperidine-2,6-dione]
IKZF1
  DC50: > 10000 nM
  Dmax: < 20%
IKZF2
  DC50: 1 to 10 nM
  Dmax: > 80%
CRBN/DDB1
  IC50: 1000 to 5000 nM

## Cn1ccc2c(CN3CCCC3)cc(-c3cc4c(cc3F)C(=O)N(C3CCC(=O)NC3=O)C4)nc21 (stereo not shown) [Example 82, 3-(6-fluoro-5-(1-methyl-4-(pyrrolidin-1-ylmethyl)-1H-pyrrolo[2,3-b]pyridin-6-yl)-1-oxoisoindolin-2-yl) piperidine-2,6-dione]
IKZF1
  DC50: > 10000 nM
  Dmax: < 20%
IKZF2
  DC50: 100 to 1000 nM
  Dmax: 20 to 40%
CRBN/DDB1
  IC50: 5000 to 10000 nM

## Cn1ccc2c(CN3CCS(=O)(=O)CC3)cc(-c3ccc4c(c3)CN(C3CCC(=O)NC3=O)C4=O)nc21 (stereo not shown) [Example 68, 3-(5-(4-((1,1-dioxidothiomorpholino)methyl)-1-methyl-1H-pyrrolo[2,3-b]pyridin-6-yl)-1-oxoisoindolin-2-yl) piperidine-2,6-dione]
IKZF1
  DC50: > 10000 nM
  Dmax: < 20%
IKZF2
  DC50: 100 to 1000 nM
  Dmax: 20 to 40%
CRBN/DDB1
  IC50: 1000 to 5000 nM

## O=C1CCC(N2Cc3cc(-c4cc(CN5CCCC5)c5ccn(C6CNC6)c5n4)ccc3C2=O)C(=O)N1 (stereo not shown) [Example 168, 3-(5-(1-(azetidin-3-yl)-4-(pyrrolidin-1-ylmethyl)-1H-pyrrolo[2,3-b]pyridin-6-yl)-1-oxoisoindolin-2-yl) piperidine-2,6-dione]
IKZF1
  DC50: 1000 to 10000 nM
  Dmax: 20 to 40%
IKZF2
  DC50: 100 to 1000 nM
  Dmax: 60 to 80%
CRBN/DDB1
  IC50: 500 to 1000 nM

## O=C1CCC(N2Cc3cc(-c4cc(CN5CCCC5)c5cn(C6COC6)nc5n4)ccc3C2=O)C(=O)N1 (stereo not shown) [Example 317, 3-(5-(2-(oxetan-3-yl)-4-(pyrrolidin-1-ylmethyl)-2H-pyrazolo[3,4-b]pyridin-6-yl)-1-oxoisoindolin-2-yl) piperidine-2,6-dione]
IKZF1
  DC50: > 10000 nM
  Dmax: < 20%
IKZF2
  DC50: 1 to 10 nM
  Dmax: 60 to 80%
CRBN/DDB1
  IC50: 100 to 500 nM

## CS(=O)(=O)C1CCN(Cc2cc(-c3ccc4c(c3)CN(C3CCC(=O)NC3=O)C4=O)nc3c2ccn3C2COC2)CC1 (stereo not shown) [Example 185, 3-(5-(4-((4-(methylsulfonyl)piperidin-1-yl)methyl)-1-(oxetan-3-yl)-1H-pyrrolo[2,3-b]pyridin-6-yl)-1-oxoisoindolin-2-yl) piperidine-2,6-dione]
IKZF1
  DC50: > 10000 nM
  Dmax: < 20%
IKZF2
  DC50: 100 to 1000 nM
  Dmax: 40 to 60%
CRBN/DDB1
  IC50: 500 to 1000 nM

## Nc1nn(C2COC2)c2c(CN3CCCC3)cc(-c3ccc4c(c3)CN(C3CCC(=O)NC3=O)C4=O)nc12 (stereo not shown) [Example 234, 3-(5-(3-amino-1-(oxetan-3-yl)-7-(pyrrolidin-1-ylmethyl)-1H-pyrazolo[4,3-b]pyridin-5-yl)-1-oxoisoindolin-2-yl) piperidine-2,6-dione]
IKZF1
  DC50: 1000 to 10000 nM
  Dmax: 20 to 40%
IKZF2
  DC50: 10 to 100 nM
  Dmax: 60 to 80%
CRBN/DDB1
  IC50: 1000 to 5000 nM

## Cn1ccc2c(C(=O)N3CCCC3)cc(-c3ccc4c(c3)CN(C3CCC(=O)NC3=O)C4=O)nc21 (stereo not shown) [Example 89, 3-(5-(1-methyl-4-(pyrrolidine-1-carbonyl)-1H-pyrrolo[2,3-b]pyridin-6-yl)-1-oxoisoindolin-2-yl) piperidine-2,6-dione]
IKZF1
  DC50: > 10000 nM
  Dmax: < 20%
IKZF2
  DC50: 100 to 1000 nM
  Dmax: 20 to 40%
CRBN/DDB1
  IC50: 500 to 1000 nM

## Cn1ccc2nc(-c3ccc4c(c3)CN(C3CCC(=O)NC3=O)C4=O)cc(CN3CCCC3)c21 (stereo not shown) [Example 77, 3-(5-(1-methyl-7-(pyrrolidin-1-ylmethyl)-1H-pyrrolo[3,2-b]pyridin-5-yl)-1-oxoisoindolin-2-yl) piperidine-2,6-dione]
IKZF1
  DC50: > 10000 nM
  Dmax: 20 to 40%
IKZF2
  DC50: < 1 nM
  Dmax: > 80%
CRBN/DDB1
  IC50: 1000 to 5000 nM

## O=C1CCC(N2Cc3cc(-c4cc(CN5CCC(O)C5)c5cc[nH]c5n4)ccc3C2=O)C(=O)N1 (stereo not shown) [Example 120, 3-(5-(4-((3-hydroxypyrrolidin-1-yl)methyl)-1H-pyrrolo[2,3-b]pyridin-6-yl)-1-oxoisoindolin-2-yl) piperidine-2,6-dione]
IKZF1
  DC50: 100 to 1000 nM
  Dmax: 20 to 40%
IKZF2
  DC50: 10 to 100 nM
  Dmax: > 80%
CRBN/DDB1
  IC50: 100 to 500 nM
